From patent US4340539A, “Derivatives of 6-bromo penicillanic acid” (priority 1980, dated 1982)

How the values were obtained:
β-lactamase enzyme RTEM = settings: cited from earlier work
[1] = Storage stability of free acid; assay type: physicochemical; settings: 23° C., seven days
Hygroscopicity = assay type: physicochemical; settings: listed as 2β-chloromethyl-2α-methylpenam-3α-carboxylic acid sulfone

CC1(C)[C@H](C(=O)O)N2C(=O)C(Br)[C@H]2S1(=O)=O (stereo partly drawn) [(2S,5R,6S)-6β-Bromo-3,3-dimethyl-7-oxo-4-thia-1-azabicyclo[3.2.0]heptane-2-carboxylic acid, S,S-dioxide]
inhibition of RTEM (β-lactamase enzyme RTEM): inhibit the action of the β-lactamase enzyme RTEM

CC1(CCl)C(C(=O)O)N2C(=O)CC2S1(=O)=O (stereo not drawn) [BL-P2013 free acid, 2β-chloromethyl-2α-methylpenam-3α-carboxylic acid sulfone]
storage stability [1]: unstable
hygroscopicity (Hygroscopicity): hygroscopic
